In patent US20240051914A1, “THE HEXADECANE TROMETHAMINE COMPOUND, ITS SYNTHESIS METHOD AND ITS APPLICATION IN ANTITUMOR AND ANTIFUNGAL ASPECTS” (Wuxi No.2 People's Hospital, priority 2021, published 2024):
In brackets after ≈: the same amount, converted by molar mass.

How the values were obtained:
Type in all cases: cell-based
[1] = system: Candida tropicalis 191327; experiment: Anti-fungal function detection, MIC by dilution in RPMI1640; conditions: Clinical drug-resistant fungal strain Candida tropicalis 191327, incubated for 35 and 24 h, read-out: Minimum Inhibitory Concentration, MIC
Method: (§1) Test Method: The hexadecyl tromethamine hydrochloride salt solution was semi-diluted to five concentration gradients (100 μg/ml, 50 μg/ml, 25 μg/ml, 12.5 μg/ml and 6.25 μg/ml) by RPMI1640 fluid nutrient medium. 100 μl of every gradient solution was added in the 96-well plate for standby application. Standard fungal strain and clinical drug-resistant fungal strain in table 2 were chosen as the experimental fungus. The activation of the experimental fungus was obtained through that the experimental fungus were cultivated for 48 h at 30° C. The activated experimental fungus was matched to fungal suspension. Count and adjust the concentration using blood counting chamber. The moderate fungal suspension were added into RPMI1640 fluid nutrient medium to 0.5-2.5×10^3 cfμ/ml of final working concentration. 100 μl of above fungal suspension was added into the above 96-well plate with the hexadecyl tromethamine hydrochloride salt solution. Two parallel wells were set for each concentration gradient compound of each strain. Blank medium and blank medium with fungal solution were set as control simultaneously.
as §1, with “tromethamine” for “tromethamine hydrochloride salt”
as §1, with “phosphate” for “hydrochloride salt”, “µg/ml)” for “μg/ml)”
(§2) 2. The Anti-Fungal Function Detection of the Hexadecyl Tromethamine Benzene Sulfonate Test Method: The hexadecyl tromethamine benzene sulfonate solution was semi-diluted to five concentration gradients (100 μg/ml, 50 μg/ml, 25 μg/ml, 12.5 μg/ml and 6.25 µg/ml) by RPMI1640 fluid nutrient medium. 100 μl of every gradient solution was added in the 96-well plate for standby application. Standard fungal strain and clinical drug-resistant fungal strain in table 2 were chosen as the experimental fungus. The activation of the experimental fungus was obtained through that the experimental fungus were cultivated for 48 h at 30° C. The activated experimental fungus was matched to fungal suspension. […]

[2] = system: Candida parapsilosis 191344; experiment: as above; conditions: for MIC: Lodderomyces parapsilosis, 191344, Clinical drug-resistant fungal strain Candida parapsilosis 191344, incubated for 35 and 24 h, read-out: Minimum Inhibitory Concentration, MIC
Method: as §1
as §1, with “tromethamine” for “tromethamine hydrochloride salt”
as §1, with “phosphate” for “hydrochloride salt”, “µg/ml)” for “μg/ml)”
as §2

Candida krusei 185429 = experiment: as above; conditions: Pichia kudriavzevii, Standard fungal strain Candida krusei 185429, incubated for 35 and 24 h, read-out: Minimum Inhibitory Concentration, MIC
Method: as §1
as §1, with “tromethamine” for “tromethamine hydrochloride salt”
as §1, with “phosphate” for “hydrochloride salt”, “µg/ml)” for “μg/ml)”
as §2

[3] = system: Candida lusitaniae 340928; experiment: as above; conditions: Clavispora lusitaniae, Standard fungal strain Candida lusitaniae 340928, incubated for 35 and 24 h, read-out: Minimum Inhibitory Concentration, MIC
Method: as §1
as §1, with “tromethamine” for “tromethamine hydrochloride salt”
as §1, with “phosphate” for “hydrochloride salt”, “µg/ml)” for “μg/ml)”
as §2

[4] = system: Candida tropicalis 191529; experiment: as above; conditions: Clinical drug-resistant fungal strain Candida tropicalis 191529, incubated for 35 and 24 h, read-out: Minimum Inhibitory Concentration, MIC
Method: as §1
as §1, with “tromethamine” for “tromethamine hydrochloride salt”
as §1, with “phosphate” for “hydrochloride salt”, “µg/ml)” for “μg/ml)”
as §2

Candida glabrata 337348 = experiment: as above; conditions: for MIC: Nakaseomyces glabratus, 337348, Standard fungal strain Candida glabrata 337348, incubated for 35 and 24 h, read-out: Minimum Inhibitory Concentration, MIC
Method: as §1
as §1, with “tromethamine” for “tromethamine hydrochloride salt”
as §1, with “phosphate” for “hydrochloride salt”, “µg/ml)” for “μg/ml)”
as §2

SGC-7901 = experiment: Antitumor function detection, CCK-8 inhibition ratio; conditions: SGC-7901 cells, 72 hours
Method: (§3) Test Method: The logarithmic phase cells were seeded in 96-well plates with 3,000 cells per well/100 μl of density. After the cells were adhered, 100 μl of the test compounds with different concentrations were added. Design 6-8 concentration gradients. Set five parallel wells in per group and set the control group. After the compound and tumor cells were incubated for 72 hours, 10 μl of CCK-8 solution was added in per well. After the cells were incubated for 1-2 hours in the incubator, the optical density (OD) of per well was counted by Universal Microplate Spectrophotometer to calculate the inhibition ratio: inhibition ratio (IR %)=(1−TOD/COD)×100%, TOD: the mean OD of drug administration group, COD: the mean OD of solvent control. The dose-response curve was plotted in accordance to the drugs with different concentrations and the inhibition ratio of cells to obtain the Inhibitory concentration of drug (IC50). Test Method: The logarithmic phase cells were seeded in 96-well plates with 3,000 cells per well/100 l of density. After the cells were adhered, 100 l of the test compounds with different concentrations were added. Design 6-8 concentration gradients. Set five parallel wells in each group and set the control group. After the compound and tumor cells were incubated for 72 hours, 10 µl of CCK-8 solution was added in each well. After the cells were incubated for 1-2 hours in the incubator, the optical density (OD) of per well was counted by Universal Microplate Spectrophotometer to calculate the inhibition ratio: inhibition ratio (IR %)=(1−TOD/COD)×100%, TOD: the mean OD of drug administration group, COD: the mean OD of solvent control. The dose-response curve was plotted in accordance to the drugs with different concentrations and the inhibition ratio of cells to obtain the Inhibitory concentration of drug (IC50). Test Method: The logarithmic phase cells were seeded in 96-well plates with 3,000 cells per well/100 μl of density. After the cells were adhered, 100 μl of the test compounds with different concentrations were added. Design 6-8 concentration gradients. Set five parallel wells in each group and set the control group. After the compound and tumor cells were incubated for 72 hours, 10 µl of CCK-8 solution was added in each well. After the cells were incubated for 1-2 hours in the incubator, the optical density (OD) of per well was counted by Universal Microplate Spectrophotometer to calculate the inhibition ratio: inhibition ratio (IR %)=(1−TOD/COD)×100%, TOD: the mean OD of drug administration group, COD: the mean OD of solvent control. The dose-response curve was plotted in accordance to the drugs with different concentrations and the inhibition ratio of cells to obtain the Inhibitory concentration of drug (IC50). Test Method: The logarithmic phase cells were seeded in 96-well plates with 3,000 cells per well/100 μl of density. After the cells were adhered, 100 μl of the test compounds with different concentrations were added. Design 6-8 concentration gradients. Set five parallel wells in each group and set the control group. After the compound and tumor cells were incubated for 72 hours, 10 µl of CCK-8 solution was added in each well. After the cells were incubated for 1-2 hours in the incubator, the optical density (OD) of per well was counted by Universal Microplate Spectrophotometer to calculate the inhibition ratio: inhibition ratio (IR %)=(1−TOD/COD)×100%, TOD: the mean OD of drug administration group, COD: the mean OD of solvent control. The dose-response curve was plotted in accordance to the drugs with different concentrations and the inhibition ratio of cells to obtain the Inhibitory concentration of drug (IC50).

MKN-45 = experiment: as above; conditions: MKN-45 cells, 72 hours
Method: as §3

[5] = system: gastric cancer cell HGC-27; experiment: as above; conditions: HGC-27 cells; for The inhibition ratio (%): 72 hours, CCK-8
Method: as §3

AGS = experiment: as above; conditions: AGS cells, 72 hours
Method: as §3

| SMILES | MIC [1] | MIC [2] | MIC (Candida krusei 185429) | MIC [3] | MIC [4] | MIC (Candida glabrata 337348) | The inhibition ratio (%) (SGC-7901; 2 μM) | The inhibition ratio (%) (SGC-7901; 20 μM) | The inhibition ratio (%) (MKN-45; 2 μM) | The inhibition ratio (%) (MKN-45; 20 μM) | The inhibition ratio (%) ([5]; 2 μM) | The inhibition ratio (%) ([5]; 20 μM) | The inhibition ratio (%) (AGS; 2 μM) | The inhibition ratio (%) (AGS; 20 μM) | other results |
| --- | --- | --- | --- | --- | --- | --- | --- | --- | --- | --- | --- | --- | --- | --- | --- |
| CCCCCCCCCCCCCCCCNC(CO)(CO)CO.Cl [2-(hexadecylamino)-2-(hydroxymethyl) propane-1,3-diol hydrochloride] | 25 µg/mL | 25 µg/mL | 50 µg/mL | 25 µg/mL | 25 µg/mL | 25 µg/mL | 21% | 100% | 31% | 99% | 72% | 101% | 42% | 99% | inhibitory effect (level reached on the inhibition curve, FIG. 3) ([5]; rises rapidly when the logarithmic value of compound concentration reached 3 nM): 100% |
| CCCCCCCCCCCCCCCCNC(CO)(CO)CO.O=S(=O)(O)c1ccccc1 [hexadecyl tromethamine benzene sulfonate] | 50 µg/mL | 50 µg/mL | 100 µg/mL | 25 µg/mL | 50 µg/mL | 25 µg/mL | 23% | 98% | 34% | 100% | 62% | 96% | 38% | 95% | – |
| CCCCCCCCCCCCCCCCNC(CO)(CO)CO [hexadecyl tromethamine phosphate] | – | – | – | – | – | – | – | – | – | – | – | – | – | – | Minimum Inhibitory Concentration, MIC ([2]; Clinical drug-resistant fungal strain Candida parapsilosis 191344, incubated for 35 and 24 h, phosphate): 50 µg/mL; Minimum Inhibitory Concentration, MIC (Candida glabrata 337348; Standard fungal strain Candida glabrata 337348, incubated for 35 and 24 h, phosphate): 50 µg/mL; The inhibition ratio (%) (SGC-7901; 2 μM, phosphate): 25%; The inhibition ratio (%) (SGC-7901; 20 μM, phosphate): 101%; The inhibition ratio (%) (MKN-45; 2 μM, phosphate): 29%; The inhibition ratio (%) (MKN-45; 20 μM, phosphate): 97%; The inhibition ratio (%) ([5]; 2 μM, phosphate): 68%; The inhibition ratio (%) ([5]; 20 μM, phosphate): 99%; The inhibition ratio (%) (AGS; 2 μM, phosphate): 44%; The inhibition ratio (%) (AGS; 20 μM, phosphate): 100% |
| CCCCCCCCCCCCCCCCNC(CO)(CO)CO [hexadecyl tromethamine] | 25 µg/mL (≈ 72.3 µM) | 25 µg/mL (≈ 72.3 µM) | 50 µg/mL (≈ 145 µM) | 25 µg/mL (≈ 72.3 µM) | 25 µg/mL (≈ 72.3 µM) | 25 µg/mL (≈ 72.3 µM) | 24% | 102% | 32% | 98% | 72% | 100% | 43% | 99% | – |
